For 12 compounds, EC50 results are on record in patent US9751874B2, “Hydroxy containing FXR (NR1H4) modulating compounds” (Gilead Sciences, Inc., priority 2014, dated 2017).

Counter-ions that a name gives are not always drawn.

The target of assay [1] is T1, human FXR alpha ligand binding domain (Homo sapiens, UniProt Q96RI1).
T1 construct: made in house; host or cells: E. coli BL21(DE3), vector pDEST15
T1 sequence (Q96RI1 187-472 isoform Q96RI1-2): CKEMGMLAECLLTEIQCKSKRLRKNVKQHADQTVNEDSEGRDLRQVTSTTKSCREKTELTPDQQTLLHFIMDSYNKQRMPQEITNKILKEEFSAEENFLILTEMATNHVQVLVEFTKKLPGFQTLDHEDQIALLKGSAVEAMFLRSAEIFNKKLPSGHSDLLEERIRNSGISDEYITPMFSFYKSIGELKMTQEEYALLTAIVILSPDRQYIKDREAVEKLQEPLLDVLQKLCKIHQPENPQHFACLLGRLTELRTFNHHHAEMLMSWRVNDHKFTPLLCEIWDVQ
Description: FRET activity assay (ligand mediated cofactor peptide interaction, LANCE). It counts as biochemical. To be noted: GST-FXR-LBD / biotinylated SRC-1 peptide (676-700), read-out: F EC50. Here is the method:
Determination of a ligand mediated cofactor peptide interaction to quantify ligand binding to the nuclear receptor FXR was performed as follows: Preparation of human FXR alpha ligand binding domain: The human FXRalpha LBD was expressed in E. coli strain BL21(DE3) as an N-terminally GST tagged fusion protein. The DNA encoding the FXR ligand binding domain was cloned into vector pDEST15 (Invitrogen). Expression was under control of an IPTG inducible T7 promoter. The amino acid boundaries of the ligand binding domain were amino acids 187-472 of Database entry NM_005123 (RefSeq). Expression and purification of the FXR-LBD: An overnight preculture of a transformed E. coli strain was diluted 1:20 in LB-Ampicillin medium and grown at 30° C. to an optical density of OD600=0.4-0.6. Gene expression was then induced by addition of 0.5 mM IPTG. Cells were incubated an additional 6 h at 30° C., 180 rpm. Cells were collected by centrifugation (7000×g, 7 min, rt). Per liter of original cell culture, cells were resuspended in 10 mL lysis buffer (50 mM Glucose, 50 mM Tris pH 7.9, 1 mM EDTA and 4 mg/mL lysozyme) and left on ice for 30 min. Cells were then subjected to sonication and cell debris removed via centrifugation (22000×g, 30 min, 4° C.). Per 10 mL of supernatant 0.5 mL prewashed Glutathione 4B sepharose slurry (Qiagen) was added and the suspension kept slowly rotating for 1 h at 4° C. Glutathione 4B sepharose beads were pelleted by centrifugation (2000×g, 15 sec, 4° C.) and washed twice in wash buffer (25 mM Tris, 50 mM KCl, 4 mM MgCl2 and 1M NaCl). The pellet was resuspended in 3 mL elution buffer per liter of original culture (elution buffer: 20 mM Tris, 60 mM KCl, 5 mM MgCl2 and 80 mM glutathione added immediately prior to use as powder). The suspension was left rotating for 15 min at 4° C., the beads pelleted and eluted again with half the volume of elution buffer than the first time. The eluates were pooled and dialysed overnight in 20 mM Hepes buffer (pH 7.5) containing 60 mM KCl, 5 mM MgCl2 as well as 1 mM dithiothreitol and 10% (v/v) glycerol. The protein was analysed by SDS-Page.
The method measures the ability of putative ligands to modulate the interaction between the purified bacterial expressed FXR ligand binding domain (LBD) and a synthetic biotinylated peptide based on residues 676-700 of SRC-1 (LCD2, 676-700). The sequence of the peptide used was B—[…]—COOH where the N-terminus was biotinylated (B). The ligand binding domain (LBD) of FXR was expressed as fusion protein with GST in BL-21 cells using the vector pDEST15. Cells were lysed by sonication, and the fusion proteins purified over glutathione sepharose (Pharmacia) according to the manufacturers instructions. For screening of compounds for their influence on the FXR-peptide interaction, the Perkin Elmer LANCE technology was applied. This method relies on the binding dependent energy transfer from a donor to an acceptor fluorophor attached to the binding partner of interest. For ease of handling and reduction of background from compound fluorescence LANCE technology makes use of generic fluorophore labels and time resolved detection Assays were done in a final volume of 25 μL in a 384 well plate, in a Tris-based buffer (20 mM Tris-HCl pH 7.5; 60 mM KCl, 5 mM MgCl2; 35 ng/μL BSA), containing 20-60 ng/well recombinantly expressed FXR-LBD fused to GST, 200-600 nM N-terminally biotinylated peptide, representing SRC1 aminoacids 676-700, 200 ng/well Streptavidin-xIAPC conjugate (Prozyme) and 6-10 ng/well Eu W1024-antiGST (Perkin Elmer). DMSO content of the samples was kept at 1%. After generation of the assay mix and diluting the potentially FXR modulating ligands, the assay was equilibrated for 1 h in the dark at rt in FIA-plates black 384 well (Greiner). The LANCE signal was detected by a Perkin Elmer VICTOR2VTM Multilabel Counter. The results were visualized by plotting the ratio between the emitted light at 665 and 615 nm. […]

The target in assay [2] is T2, FXR ligand binding domain (Homo sapiens, UniProt Q96RI1).
T2 construct: expressed in transfected cells; host or cells: HEK293 cells, transiently transfected with pCMV-BD-FXR-LBD, pFR-Luc and pRL-CMV
T2 sequence (Q96RI1 187-472 isoform Q96RI1-2): T1 sequence (Q96RI1 187-472 isoform Q96RI1-2)
Description: Mammalian One Hybrid (M1H) assay, Gal4 promoter driven transactivation in HEK293 cells. The conditions noted are these: Gal4-FXR-LBD luciferase reporter, 16 h. Type of assay: cell-based. Here is the method: Mammalian One Hybrid (M1H) Assay
Determination of a ligand mediated Gal4 promoter driven transactivation to quantify ligand binding mediated activation of FXR was performed as follows: The cDNA part encoding the FXR ligand binding domain was cloned into vector pCMV-BD (Stratagene) as a fusion to the yeast GAL4 DNA binding domain under the control of the CMV promoter. The amino acid boundaries of the ligand binding domain were amino acids 187-472 of Database entry NM_005123 (RefSeq). The plasmid pFR-Luc (Stratagene) was used as the reporter plasmid, containing a synthetic promoter with five tandem repeats of the yeast GAL4 binding sites, driving the expression of the Photinus pyralis (American firefly) luciferase gene as the reporter gene. In order to improve experimental accuracy the plasmid pRL-CMV (Promega) was cotransfected. pRL-CMV contains the constitutive CMV promoter, controlling the expression of the Renilla reniformis luciferase. All Gal4 reporter gene assays were done in HEK293 cells (obtained from DSMZ, Braunschweig, Germany) grown in MEM with L-Glutamine and Earle's BSS supplemented with 10% fetal bovine serum, 0.1 mM nonessential amino acids, 1 mM sodium pyruvate, and 100 units Penicilin/[…] per mL at 37° C. in 5% CO2. Medium and supplements were obtained from Invitrogen. For the assay, […] cells were plated per well in 96 well plates in 100 μL per well MEM without Phenol Red and L-Glutamine and with Earle's BSS supplemented with 10% charcoal/dextran treated FBS (HyClone, South Logan, Utah), 0.1 mM nonessential amino acids, 2 mM glutamine, 1 mM sodium pyruvate, and 100 units Penicilin/[…] per mL, incubated at 37° C. in 5% CO2. The following day the cells were >90% confluence. Medium was removed and cells were transiently transfected using 20 μL per well of a OptiMEM—polyethylene-imine-based transfection-reagent (OptiMEM, Invitrogen; Polyethyleneimine, Aldrich Cat No. 40,827-7) including the three plasmids described above. MEM with the same composition as used for plating cells was added 2-4 h after addition of transfection mixture. Then compound stocks, prediluted in MEM were added (final vehicle concentration not exceeding 0.1%). Cells were incubated for additional 16 h before firefly and renilla luciferase activities were measured sequentially in the same cell extract using a Dual-Light-Luciferase-Assay system (Dyer et al., Anal. Biochem. 2000, 282, 158-161). All experiments were done in triplicates.
In general terms: In a reporter assay the amount or activity of a reporter protein is the signal.

In general, EC50 refers to the midpoint of the concentration-response curve. Turning to `O[C@@]1(c2nc3ccccc3s2)[C@@H]2CC3C[C@H]1C[C@](OCc1c(-c4c(Cl)cccc4Cl)noc1C1CC1)(C3)C2` [Example 24b, (1R,2s,3S,5s,7s)-2-(benzo[d]thiazol-2-yl)-5-((5-cyclopropyl-3-(2,6-dichlorophenyl)isoxazol-4-yl)methoxy)adamantan-2-ol], the values for the 50% effective concentration (EC50) in assay [1] and in assay [2] were 240 nM and 730 nM, respectively.

Turning to `OC1(c2nc3ccccc3s2)C2CC3CC1CC(OCc1c(-c4c(Cl)cccc4Cl)noc1C1CC1)(C3)C2` [Example 24a, (1R,2r,3S,5s,7s)-2-(Benzo[d]thiazol-2-yl)-5-((5-cyclopropyl-3-(2,6-dichlorophenyl)isoxazol-4-yl)methoxy)adamantan-2-ol], the figures for the EC50 in assay [1] and in assay [2] were 49 nM and 140 nM, respectively.

For the compound `O=C(O)c1cccc2nc([C@]3(O)CC[C@@H](OCc4c(-c5c(Cl)cccc5Cl)noc4C4CC4)CC3)sc12` [Example 26, 2-((1s,4s)-4-((5-Cyclopropyl-3-(2,6-dichlorophenyl)isoxazol-4-yl)methoxy)-1-hydroxycyclohexyl)benzo[d]thiazole-7-carboxylic acid], the EC50 in assay [1] stood at 17 nM; in assay [2], 210 nM.

With `CC1(C)C[C@@H](OCc2c(-c3c(Cl)cccc3Cl)noc2C2CC2)CC[C@]1(O)c1nc2c(F)cc(C(=O)O)cc2s1` (racemic) [Example 11-32, 2-((1R,4S)-4-((5-Cyclopropyl-3-(2,6-dichlorophenyl)isoxazol-4-yl)methoxy)-1-hydroxy-2,2-dimethylcyclohexyl)-4-fluorobenzo[d]thiazole-6-carboxylic acid], the results for the EC50 in assay [1] and in assay [2] were 120 nM and 23 nM, respectively.

In the case of `O=C(NCCS(=O)(=O)O)c1cc(F)c2nc([C@]3(O)[C@@H]4CC[C@H]3C[C@H](OCc3c(-c5c(Cl)cccc5Cl)noc3C3CC3)C4)sc2c1` [Example 39, 2-(2-((1R,3s,5S,8r)-3-((5-Cyclopropyl-3-(2,6-dichlorophenyl)isoxazol-4-yl)methoxy)-8-hydroxybicyclo[3.2.1]octan-8-yl)-4-fluorobenzo[d]thiazole-6-carboxamido)ethanesulfonic acid, ammonia salt], the EC50 in assay [1] came to 3.2 nM; in assay [2], 760 nM.

On to `O=C(O)c1cc(F)c2nc([C@]3(O)CC4CC3CC4OCc3c(-c4c(Cl)cccc4Cl)noc3C3CC3)sc2c1` (stereo partly drawn) [Example 11-49, 2-((1R,2S,4R)-5-((5-Cyclopropyl-3-(2,6-dichlorophenyl)isoxazol-4-yl)methoxy)-2-hydroxybicyclo[2.2.1]heptan-2-yl)-4-fluorobenzo[d]thiazole-6-carboxylic acid], for which the half-maximal effective concentration (EC50) in assay [1] came out at 28 nM; in assay [2], 93 nM.

Take `O=C(O)c1cc(F)c2nc(C3(O)C[C@H]4CC[C@@H](C3)C4OCc3c(-c4c(Cl)cccc4Cl)noc3C3CC3)sc2c1` (single isomer, unassigned) [Example 11-55]: the EC50 in assay [1] is 77 nM; in assay [2] it was 24 nM.

Turning to `O=C(O)c1ccnc([C@]2(O)[C@@H]3CC[C@H]2C[C@H](OCc2c(-c4c(Cl)cccc4Cl)noc2C2CC2)C3)c1` [Example 11-26], the EC50 in assay [1] came out at 53 nM; in assay [2] it was 1800 nM.

On to `O=C(NCCN1CCOCC1)c1cc(F)c2nc([C@]3(O)CC[C@@H](OCc4c(-c5c(Cl)cncc5Cl)noc4C4CC4)CC3)sc2c1` [Example 17, 2-((1s,4s)-4-((5-Cyclopropyl-3-(3,5-dichloropyridin-4-yl)isoxazol-4-yl)methoxy)-1-hydroxycyclohexyl)-4-fluoro-N-(2-morpholinoethyl)benzo[d]thiazole-6-carboxamide], for which the EC50 in assay [1] is 150 nM; in assay [2] it was 670 nM.

With `O=C(O)Cc1nc([C@]2(O)[C@@H]3CC[C@H]2C[C@H](OCc2c(-c4c(Cl)cccc4Cl)noc2C2CC2)C3)oc1C(F)(F)F` [Example 45, 2-(2-((1R,3s,5S,8r)-3-((5-Cyclopropyl-3-(2,6-dichlorophenyl)isoxazol-4-yl)methoxy)-8-hydroxybicyclo[3.2.1]octan-8-yl)-5-(trifluoromethyl)oxazol-4-yl)acetic acid], the half-maximal effective concentration (EC50) in assay [1] was 6 nM; in assay [2], 7.9 nM.

As to `O=C(O)Cc1csc([C@]2(O)[C@@H]3CC[C@H]2C[C@H](OCc2c(-c4c(Cl)cccc4Cl)noc2C2CC2)C3)n1` [Example 46, 2-(2-((1R,3s,5S,8r)-3-((5-Cyclopropyl-3-(2,6-dichlorophenyl)isoxazol-4-yl)methoxy)-8-hydroxybicyclo[3.2.1]octan-8-yl)thiazol-4-yl)acetic acid], the concentration giving a half-maximal response (EC50) amounted to 42 nM in assay [1] and 260 nM in assay [2].

As to `O=C(O)c1cccc([C@]2(O)[C@@H]3CC[C@H]2C[C@H](OCc2c(-c4c(Cl)cccc4Cl)noc2C2CC2)C3)c1` [Example 11-25, 3-((1R,3s,5S,8r)-3-((5-Cyclopropyl-3-(2,6-dichlorophenyl)isoxazol-4-yl)methoxy)-8-hydroxybicyclo[3.2.1]octan-8-yl)benzoic acid], the EC50 in assay [1] came out at 79 nM; in assay [2], 430 nM.
